Where two headings read alike, the source gives them in different places.
Assays:
[1] = tested on: Terminal Deoxynucleotidyl Transferase (TdT); experiment: Incorporation of tritium labeled nucleotide into acid insoluble polydeoxynucleotides by purified TdT; type: biochemical; conditions: purified TdT enzyme sample, 90 minute incubation period, tritium labeled substrate
Protocol: (§1) To illustrate that suitable modified deoxynucleoside triphosphates and/or single stranded oligodeoxynucleotides which have impaired basing pairing abilities, as described above, are specific to TdT, tritium labeled ethenodeoxyadenosine triphosphate (etheno dATP) and tritium labeled deoxyadenosine triphosphate (dATP) were appropriately incubated with a purified TdT enzyme sample and with a purified E. coli DNA polymerase I sample.

[2] = molecular target: E. coli DNA polymerase I (Escherichia coli, UniProt P00582); experiment: Incorporation of tritium labeled nucleotide into acid insoluble polydeoxynucleotide by purified E. coli DNA polymerase I; type: biochemical; conditions: purified E. coli DNA polymerase I sample, 90 minute incubation period, tritium labeled substrate
Protocol: as §1

[3] = tested on: TdT; conditions: cited from earlier work
[4] = tested on: polynucleotide phophorylase; conditions: cited from earlier work
[5] = tested on: other cellular DNA polymerases; conditions: 100 mM ATP added (Mertelsmann); cited from earlier work

Sequence of E. coli DNA polymerase I (P00582 whole entry): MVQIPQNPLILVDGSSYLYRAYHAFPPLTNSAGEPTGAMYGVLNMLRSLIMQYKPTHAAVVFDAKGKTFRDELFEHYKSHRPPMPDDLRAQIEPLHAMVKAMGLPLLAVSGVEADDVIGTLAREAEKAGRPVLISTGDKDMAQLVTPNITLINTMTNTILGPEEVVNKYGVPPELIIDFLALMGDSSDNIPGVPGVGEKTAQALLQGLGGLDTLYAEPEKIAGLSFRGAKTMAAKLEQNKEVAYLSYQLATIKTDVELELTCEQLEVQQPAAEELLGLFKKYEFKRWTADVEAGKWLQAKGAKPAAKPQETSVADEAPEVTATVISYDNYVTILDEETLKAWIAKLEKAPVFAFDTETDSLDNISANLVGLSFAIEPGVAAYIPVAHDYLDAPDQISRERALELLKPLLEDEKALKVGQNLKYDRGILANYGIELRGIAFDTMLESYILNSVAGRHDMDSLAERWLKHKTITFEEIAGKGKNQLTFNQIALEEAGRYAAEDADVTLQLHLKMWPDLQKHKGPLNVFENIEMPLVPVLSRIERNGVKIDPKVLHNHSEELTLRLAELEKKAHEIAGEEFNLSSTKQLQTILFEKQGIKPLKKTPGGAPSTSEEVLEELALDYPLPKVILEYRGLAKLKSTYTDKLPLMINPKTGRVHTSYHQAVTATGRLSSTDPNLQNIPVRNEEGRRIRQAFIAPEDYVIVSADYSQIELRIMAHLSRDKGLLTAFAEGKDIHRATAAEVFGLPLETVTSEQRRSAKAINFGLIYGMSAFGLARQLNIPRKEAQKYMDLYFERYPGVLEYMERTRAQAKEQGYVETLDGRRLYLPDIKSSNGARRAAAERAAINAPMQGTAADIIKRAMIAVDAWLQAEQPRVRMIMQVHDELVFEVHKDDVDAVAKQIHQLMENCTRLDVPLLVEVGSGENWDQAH

| Molecule | incorporation into acid insoluble polydeoxynucleotides [1] | incorporation into acid insoluble polydeoxynucleotide [2] | other results |
| --- | --- | --- | --- |
| O=P(O)(O)OP(=O)(O)OP(=O)(O)OC[C@H]1O[C@@H](n2cnc3c2ncn2ccnc32)C[C@@H]1O [etheno-dATP, 1,N^6 -ethenodeoxy-adenosine triphophate] | progressive incorporation | no detectable incorporation |  |
| Nc1ncnc2c1ncn2[C@H]1C[C@H](O)[C@@H](COP(=O)(O)OP(=O)(O)OP(=O)(O)O)O1 [dATP, deoxyadenosine triphosphate] | progressive incorporation | normally and appreciably incorporated |  |
| CCN1C(=O)C=CC1=O [N-ethylmaleimide] |  |  | inhibition of TdT activity ([3]; 10% ethanol and 10 mM N-ethylmaleimide added (Coleman)): completely inhibit TdT activity |
| 6-dimethylaminoadenine |  |  | substrate for template independent RNA polymerase, polynucleotide phophorylase [4]: remains a substrate |
| Nc1ncnc2c1ncn2[C@@H]1O[C@H](COP(=O)(O)OP(=O)(O)OP(=O)(O)O)[C@@H](O)[C@H]1O [ATP, adenosine triphosphate] |  |  | inhibition of TdT activity ([3]; 100 mM ATP added (Mertelsmann)): specifically inhibits TdT; effect on other cellular DNA polymerases [5]: without affecting other cellular DNA polymerases |

— patent US4307189A, “Method for the quantitative determination of terminal deoxynucleotidyl transferase in biological samples” (priority 1980, dated 1981)
